Data on 3 molecules can be found in US20110143332A1, “METHOD FOR IDENTIFYING MICROORGANISM OR DETECTING ITS MORPHOLOGY ALTERATION USING SURFACE ENHANCED RAMAN SCATTERING (SERS)” (NATIONAL YANG-MING UNIVERSITY, priority 2007, published 2011).

Entries after “also recorded” stand apart in the source; their conditions may differ. Bridge positions count the residues as written; N and C are the ends. Square brackets hold non-standard residues; d marks the D form. Peptide text beside a SMILES is read from it. * marks the point of attachment. Ileψ(thiazoline)Cys = CC[C@H](C)[C@H](N)C1=N[C@H](C(=O)*)CS1; dOrn = NCCC[C@@H](N)C(=O)O

Type in all cases: cell-based
The subject of assay [1] is Enterococcus faecalis 7-18 uE. The assay is described as follows: SERS monitoring of antibiotic effect on drug-resistant strain. The conditions noted are these: 0.5% agarose gel, FIG. 11. As to the method: (§1) Fourteen laboratory strains, Escherichia coli JM109, Escherichia coli JM109(mutant), Enterococcus faecalis 7-18 uE, Enterococcus faecium 13631, Staphylococcus aureus 13649, Staphylococcus aureus 13615, Streptococcus agalactiae 13640, Enterococcus faecalis 13641 C2, Klebsiella pneumoniae 13641 C1, Proteus mirabilis 13621 C1, Enterobacter cloacae 13457 C2, E. coli 13594 C1, E. coli 13650, Escherichia coli JM109(mutant) and E. coli 13634 were analyzed. Bacteria were grown in 5 mL of LB broth (˜6 h) to OD600=˜0.5, washed five times with PBS, and resuspended in 0.1 ml of PBS. About 3˜5 μl of the bacteria suspension is placed on the Ag/AAO substrate. 0.5% agarose gel was used to mount the bacterial samples for inhibiting the movement of bacteria. Five antibiotics: ampicillin, bacitracin, vancomycin, tetracycline and gentamycin were used in the examples. The former three could interfere with construction of the bacterial cell wall. The last two inhibited the protein synthesis in bacteria via disrupting the binding between tRNA and ribosome.
(§2) A Jobin Yvon Raman microscope (model LabRAM HR800) was used to observe the scattering excited by a 632.8 nm He—Ne laser. The spectral data acquisition time was in the 1-10 s range and the SERS spectra were obtained with a 100× microscope objective for excitation/collection. […]

Another assay has as its system Escherichia coli JM109. As to the kind of experiment: SERS monitoring of antibiotic effect on bacteria mounted on Ag/AAO substrate. The conditions noted are these: 10 μg/ml ampicillin for 35 min; antibiotic susceptible strain; 0.5% agarose gel; FIG. 5. On the procedure: as §1, §2
Assay [2] relates to Escherichia coli JM109(mutant). Described as above. The conditions noted are these: 25 μg/ml bacitracin for 48 min; antibiotic susceptible strain; 0.5% agarose gel; FIG. 6. As to the method:
as §1, §2

Another assay deals with E. coli 13650. The description is as above. Particulars: 25 μg/ml gentamycin for 37 min; antibiotic susceptible strain; 0.5% agarose gel; FIG. 10. On the procedure:
as §1, §2

As for `CC1(C)S[C@@H]2[C@H](NC(=O)[C@H](N)c3ccccc3)C(=O)N2[C@H]1C(=O)O` [ampicillin], the “change of SERS spectrum (in words)” value in assay [1] (10 μg/ml ampicillin for 35 min) is on record as “No spectral changes were observed; also recorded: no changes in the spectra were observed”. The “new peak in SERS spectrum compared with no treatment” value with Escherichia coli JM109 was found to be 700 cm⁻¹.
With `CC[C@H](C)[C@H](N)C1=N[C@H](C(=O)N[C@@H](CC(C)C)C(=O)N[C@H](CCC(=O)O)C(=O)N[C@H](C(=O)N[C@H]2CCCCNC(=O)[C@H](CC(N)=O)NC(=O)[C@@H](CC(=O)O)NC(=O)[C@H](Cc3cnc[nH]3)NC(=O)[C@@H](Cc3ccccc3)NC(=O)[C@H]([C@@H](C)CC)NC(=O)[C@@H](CCCN)NC2=O)[C@@H](C)CC)CS1` [bacitracin] ({Ileψ(thiazoline)Cys}-L[dE]IK[dOrn]I[dF]H[dD]N; lactam 4-C), the “new peak in SERS spectrum compared with no treatment” value in assay [2] is 700 cm⁻¹. In addition, the “change of SERS spectrum (in words)” value in assay [1] (25 μg/ml bacitracin for 48 min) is on record as “No spectral changes were observed; also recorded: no changes in the spectra were observed”.
gentamycin: the “new peaks in SERS spectrum” value with E. coli 13650 came out at 418 cm⁻¹.
